Experimental data from ChEMBL document CHEMBL1201862, “PubChem BioAssay data set” (2004).
Active and inactive are the calls of the source.

Legend:
Assay type in all cases: functional
[1] = target: T1, Sentrin-specific protease 8 (Homo sapiens, UniProt Q96LD8);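 note: luminescence read-out of SENP8 inhibition, dose-response confirmation following an ultra-high-throughput screen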
T1 sequence (Q96LD8 whole entry): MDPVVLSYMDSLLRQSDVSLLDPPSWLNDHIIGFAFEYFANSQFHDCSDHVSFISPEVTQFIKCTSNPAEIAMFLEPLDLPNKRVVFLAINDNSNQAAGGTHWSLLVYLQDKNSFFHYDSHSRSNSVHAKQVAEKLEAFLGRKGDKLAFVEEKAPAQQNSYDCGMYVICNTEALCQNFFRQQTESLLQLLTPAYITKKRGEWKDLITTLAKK

[2] = target: T2, Sentrin-specific protease 6 (Homo sapiens, UniProt Q9GZR1);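 note: Luminescence-based dose-response confirmatory assay of SENP6 inhibition, following up an ultra-high-throughput screen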
T2 sequence (Q9GZR1 whole entry): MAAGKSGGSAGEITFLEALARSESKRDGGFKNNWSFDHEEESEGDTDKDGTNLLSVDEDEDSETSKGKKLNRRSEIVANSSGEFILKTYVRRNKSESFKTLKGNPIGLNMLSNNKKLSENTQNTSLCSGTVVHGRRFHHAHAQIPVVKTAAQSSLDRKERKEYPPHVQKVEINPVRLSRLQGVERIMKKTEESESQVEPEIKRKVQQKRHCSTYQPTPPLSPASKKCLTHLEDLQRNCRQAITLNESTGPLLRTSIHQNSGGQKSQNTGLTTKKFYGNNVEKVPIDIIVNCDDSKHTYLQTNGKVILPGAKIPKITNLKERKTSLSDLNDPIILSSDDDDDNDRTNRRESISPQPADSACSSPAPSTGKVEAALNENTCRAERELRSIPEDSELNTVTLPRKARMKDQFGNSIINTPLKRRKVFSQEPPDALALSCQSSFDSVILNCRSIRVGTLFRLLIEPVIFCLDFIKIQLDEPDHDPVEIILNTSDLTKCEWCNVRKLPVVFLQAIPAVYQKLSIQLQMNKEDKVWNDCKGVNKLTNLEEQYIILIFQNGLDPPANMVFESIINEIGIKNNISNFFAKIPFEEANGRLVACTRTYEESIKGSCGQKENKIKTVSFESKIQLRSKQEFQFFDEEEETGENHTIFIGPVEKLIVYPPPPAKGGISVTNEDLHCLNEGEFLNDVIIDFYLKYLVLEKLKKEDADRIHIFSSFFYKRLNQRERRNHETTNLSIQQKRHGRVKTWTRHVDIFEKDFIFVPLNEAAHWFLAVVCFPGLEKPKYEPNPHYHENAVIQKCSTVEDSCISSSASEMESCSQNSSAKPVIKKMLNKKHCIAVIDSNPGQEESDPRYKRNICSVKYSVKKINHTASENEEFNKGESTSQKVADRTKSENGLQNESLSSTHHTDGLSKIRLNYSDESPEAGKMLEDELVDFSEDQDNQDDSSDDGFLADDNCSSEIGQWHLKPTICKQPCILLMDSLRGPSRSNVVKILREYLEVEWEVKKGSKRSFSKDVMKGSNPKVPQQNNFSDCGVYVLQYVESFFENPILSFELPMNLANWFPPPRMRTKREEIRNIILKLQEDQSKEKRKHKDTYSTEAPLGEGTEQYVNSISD

[3] = target: T3, Replicative DNA helicase DnaB (Mycobacterium tuberculosis, UniProt P9WMR3); test: DnaB intein splicing inhibitors, dose response, biochemical, cell-free fluorescence (AID 449749)
T3 sequence (P9WMR3 whole entry): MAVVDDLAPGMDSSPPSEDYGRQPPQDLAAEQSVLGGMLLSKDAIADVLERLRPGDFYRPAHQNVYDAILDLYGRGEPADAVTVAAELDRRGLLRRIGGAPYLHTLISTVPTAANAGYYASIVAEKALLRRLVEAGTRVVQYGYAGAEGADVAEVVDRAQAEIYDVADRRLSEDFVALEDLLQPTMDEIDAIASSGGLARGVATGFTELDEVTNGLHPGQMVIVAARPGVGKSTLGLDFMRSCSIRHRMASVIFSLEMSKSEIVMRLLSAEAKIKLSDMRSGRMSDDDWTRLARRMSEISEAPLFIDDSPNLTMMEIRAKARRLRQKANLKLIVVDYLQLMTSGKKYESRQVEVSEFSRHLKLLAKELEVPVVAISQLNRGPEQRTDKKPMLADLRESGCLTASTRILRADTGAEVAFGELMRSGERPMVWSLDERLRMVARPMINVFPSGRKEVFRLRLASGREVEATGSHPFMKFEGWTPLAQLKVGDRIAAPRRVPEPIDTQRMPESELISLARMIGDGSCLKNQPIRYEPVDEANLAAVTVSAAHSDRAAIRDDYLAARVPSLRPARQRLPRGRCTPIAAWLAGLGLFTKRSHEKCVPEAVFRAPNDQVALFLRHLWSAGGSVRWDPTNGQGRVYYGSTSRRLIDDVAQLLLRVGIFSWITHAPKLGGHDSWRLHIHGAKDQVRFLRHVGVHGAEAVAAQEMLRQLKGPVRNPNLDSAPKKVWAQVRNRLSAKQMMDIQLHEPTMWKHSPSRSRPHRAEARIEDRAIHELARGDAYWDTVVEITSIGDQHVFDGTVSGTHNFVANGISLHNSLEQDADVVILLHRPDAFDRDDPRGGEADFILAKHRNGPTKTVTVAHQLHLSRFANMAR

Protein RecA = target: T4, Protein RecA (Mycobacterium tuberculosis, UniProt P9WHJ3); test: Fluorescence Cell-Free Homogeneous Dose Retest to Identify Inhibitors of RecA-Intein Splicing Activity. [Related pubchem assays (depositor defined):AID2097, AID2223, AID489010, AID492950]
T4 sequence (P9WHJ3 whole entry): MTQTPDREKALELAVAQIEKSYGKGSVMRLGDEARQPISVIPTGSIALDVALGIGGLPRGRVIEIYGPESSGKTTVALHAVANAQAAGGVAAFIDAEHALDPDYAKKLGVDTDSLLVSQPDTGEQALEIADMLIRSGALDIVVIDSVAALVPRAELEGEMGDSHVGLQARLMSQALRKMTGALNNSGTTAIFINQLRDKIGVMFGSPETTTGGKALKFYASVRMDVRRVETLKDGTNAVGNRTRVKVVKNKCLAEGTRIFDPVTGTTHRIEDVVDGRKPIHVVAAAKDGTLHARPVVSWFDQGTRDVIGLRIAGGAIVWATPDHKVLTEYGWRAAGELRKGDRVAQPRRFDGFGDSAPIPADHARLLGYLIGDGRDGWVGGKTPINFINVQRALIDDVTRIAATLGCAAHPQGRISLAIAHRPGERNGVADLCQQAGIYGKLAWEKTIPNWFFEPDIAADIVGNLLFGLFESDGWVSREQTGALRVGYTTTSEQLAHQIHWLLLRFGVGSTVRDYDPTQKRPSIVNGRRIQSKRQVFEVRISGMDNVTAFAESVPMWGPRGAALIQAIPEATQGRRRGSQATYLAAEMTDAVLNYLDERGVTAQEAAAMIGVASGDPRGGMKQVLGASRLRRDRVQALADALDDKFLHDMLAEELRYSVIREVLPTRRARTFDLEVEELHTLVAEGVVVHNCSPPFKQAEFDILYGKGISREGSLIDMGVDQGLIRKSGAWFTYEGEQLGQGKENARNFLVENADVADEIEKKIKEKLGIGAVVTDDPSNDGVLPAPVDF

In the case of `Oc1ccc(/C=N/Nc2cc(N3CCCC3)nc(N3CCCC3)n2)cc1`, the IC50 [1] is reported as 22.1 µM (active) and the IC50 [2] is reported as 6.05 µM (active).
`COc1ccc(S(=O)(=O)/N=C2\C=C(Nc3ccc(O)cc3)C(=O)c3ccccc32)cc1` was tested, and the AC50 [3] was > 380 µM (inconclusive) and the EC50 (Protein RecA) was 0.141 µM (active).
For `Cc1cccc(C)c1-n1cccc1/C=C1\SC(=S)N(c2cccc(C(=O)O)c2)C1=O`, the AC50 [3] was 3.26 µM (active) and the EC50 (Protein RecA) was 9.09 µM (active).
In the case of `COc1ccc(/C=N/Nc2cc(N3CCCC3)nc(N3CCCC3)n2)cc1`, the IC50 [1] is reported as 7.52 µM (active) and the IC50 [2] is reported as 2.71 µM (active).
